Data on two compounds can be found in paper PMC4750701, “Role of Mitochondrial RNA Polymerase in the Toxicity of Nucleotide Inhibitors of Hepatitis C Virus” (Antimicrobial Agents and Chemotherapy, 2016).

Series [1] has as its system mitochondrial spare respiratory capacity in PC-3 cells. Put plainly: Oxygen consumption rate / spare respiratory capacity in PC-3 cells. As to conditions: PC-3 cells.
Protocol: Mitochondrial respiration was monitored by measuring the rate of oxygen consumption (OCR) of PC-3 cells after 3-day treatments with the compounds, using a Seahorse extracellular flux analyzer (XF^e-96) based on published protocols ([22][–][24]). The optimal cell seeding was determined by measuring the basal OCR of PC-3 cells that were seeded at different densities of 2.5 × 10^3, 5 × 10^3, 7.5 × 10^3, and 10 × 10^3 cells/well in XF 96-well plates (Seahorse Bioscience, North Billerica, MA) and incubated with 0.5% dimethyl sulfoxide (DMSO) for 3 days. […] Each reagent in the Mito Stress test kit (Seahorse Biosciences), i.e., ATP synthase inhibitor oligomycin, mitochondrial uncoupler carbonyl cyanide-4-(trifluoromethoxy)phenylhydrazone (FCCP), and a fixed-ratio mixture of the mitochondrial complex I (NADH dehydrogenase) inhibitor rotenone and the complex III (CoQH2-cytochrome c reductase) inhibitor antimycin A, was titrated. The lowest concentration that reached the maximal effect was chosen for each reagent. The OCR signals were normalized by cell numbers using DNA content determined by Hoechst's stain as described below.
PC-3 cells were seeded at a density of 5 × 10^3 cells/well in XF 96-well plates and incubated with the compounds for 3 days. On the day of the assay, the cell medium was replaced with XF assay medium (pH 7.4) containing 10 mM glucose and 1 mM freshly prepared pyruvate. Mitochondrial respiration was monitored by measuring OCR on a Seahorse extracellular flux analyzer (XF^e-96). All concentrations listed are the final concentration after mixing unless noted otherwise. […] Spare respiratory capacity was obtained by subtracting the rate of basal respiration from the rate of maximal respiration.
The cells were lysed by freezing at −80°C for >2 h. […] In parallel, another set of cells was treated with the compounds for 3 days and the ATP levels were measured using CellTiter Glo viability reagents (Promega, Madison, WI).
The test system of another series is Fibroblasts (MRC5). Put plainly: Cytotoxicity in MRC5 fibroblasts, 5-day treatment. As to conditions: read-out: Mean CC50 ± SD in Fibroblasts (MRC5); 5-day treatment.
The test system of series [2] is human myeloid progenitors (bone marrow cells). The series is described as follows: Bone marrow myeloid progenitor colony assay, 14 days. The class given is cell-based. As to conditions: read-out: Mean CC50 ± SD in Bone marrow cells Myeloid.
In another series the test system is Stimulated PBMCs. Put plainly: Cytotoxicity in stimulated PBMCs, 5 days. The conditions noted are these: read-out: Mean CC50 ± SD in PBMCs Stimulated; 5 days.
Series [3] relates to nuclear DNA-encoded succinate dehydrogenase (SDH-A). The series is described as follows: Nuclear protein synthesis (SDH-A, MitoBiogenesis in-cell ELISA) in PC-3 cells. As to conditions: 5 days, read-out: Mean CC50 ± SD causing General cellular toxicity: Protein synthesis. The series is classed as cell-based, human. How it is done:
(§1) PC-3 cells were treated with the compounds for 5 days and analyzed with the MitoTox MitoBiogenesis in-cell enzyme-linked immunosorbent assay (ELISA) kit (MitoSciences/Abcam, Eugene, Oregon) as described previously ([13]). The assay uses quantitative immunocytochemistry to measure the protein levels of nuclear DNA-encoded succinate dehydrogenase (SDH-A; complex II [succinate dehydrogenase]) and mitochondrial DNA-encoded cytochrome c oxidase (COX-1; complex IV [cytochrome c oxidase]) in cultured cells.
(In general: ELISA stands for enzyme-linked immunosorbent assay.)

A further series concerns Quiescent PBMCs. The series is described as follows: Cytotoxicity in quiescent PBMCs, 5 days. The conditions noted are these: read-out: Mean CC50 ± SD in PBMCs Quiescent; 5 days.
Another series deals with Prostate cells (PC-3). The series is described as follows: Cytotoxicity / ATP level in PC-3 cells, 5-day treatment.
Series [4] concerns mitochondrial DNA-encoded cytochrome c oxidase (COX-1). The series is described as follows: Mitochondrial protein synthesis assay (COX-1, MitoBiogenesis in-cell ELISA) in PC-3 cells. The class given is cell-based, human. How it is done: as §1
Another series deals with Huh7. Put plainly: Cytotoxicity in Huh7 cells, 5-day treatment (CellTiter Glo). As to conditions: read-out: Mean CC50 ± SD in Hepatic cells Huh7; 5-day treatment. For orientation: In ATP-based viability assays light output follows the ATP content of the culture.
Series [5] deals with Primary human hepatocytes. The series is described as follows: Cytotoxicity in primary human hepatocytes, 5 days. The conditions noted are these: read-out: Mean CC50 ± SD in Hepatic cells (primary); human primary hepatocytes, 5 days.
Another series deals with HepG2 (galactose). The series is described as follows: Cytotoxicity in HepG2 (galactose) cells, 5-day treatment. As to conditions: read-out: Mean CC50 ± SD in Hepatic cells HepG2 (galactose); 5-day treatment.
In series [6] the test system is human erythroid progenitors (bone marrow cells). The series is described as follows: Bone marrow erythroid progenitor colony assay, 14 days. The series is classed as cell-based. As to conditions: read-out: Mean CC50 ± SD in Bone marrow cells Erythroid.
Series [7] has as its system mitochondrial DNA in PC-3 cells and HepG2 cells. The series is described as follows: Mitochondrial DNA depletion, PC-3 versus HepG2 cells. The series is classed as cell-based, human. As to conditions: 10-day treatment. The source says:
Supplementary Fig. S1: PC-3 cells are more sensitive to ddC-induced mitochondria toxicity than HepG2 cells. (A) Levels of mitochondrial DNA in PC-3 cells (shown in […] and dashed line) and HepG2 cells (shown in • and solid line) after 10-day treatment; Levels of mitochondrial protein synthesis in PC-3 cells (B) and HepG2 cells (C) represented by COX-1 protein and nuclear protein synthesis represented by SDH-A protein after 5-day treatment. The levels of COX-1 (•), SDH-A ([…]), and ATP (<) are curve fitted to solid, dash, and dotted lines, […]

The test system of the next series is T-cells (MT-4). The series is described as follows: Cytotoxicity in MT-4 T-cells, 5-day treatment. As to conditions: read-out: Mean CC50 ± SD in T-cells (MT-4); 5-day treatment.

Like-named read-outs stand apart in the source and are kept apart here.

Protocol for Fibroblasts (MRC5): (§2) All cells were cultured at 37°C in a 5% CO2 incubator with 90% humidity unless noted otherwise. […] All cells were treated with the various compounds for 5 days, except for human erythroid and myeloid progenitors, which were treated for 14 days. After the incubation period, cell viability was measured by the addition of CellTiter Glo viability reagents (Promega, Madison, WI). The luminescence signal was quantified on an Envision luminescence plate reader (PerkinElmer, Waltham, MA) after incubation of the reagents and cells for 10 min at room temperature. […] CC50 values were calculated as the average of the results of three or four independent experiments.
Cell Culture and Cytotoxicity Studies
The Huh-7 cells were maintained in growth medium containing Dulbecco's Modified Eagle
Medium (DMEM, Cellgro) supplemented with 1% Nonessential Amino Acids (NEAA, Cellgro,
Manassas, VA), 10% fetal bovine serum (FBS, HyClone, Logan, UT) and 1% Penicillin-
streptomycin-glutamate (PSG, Invitrogen, Carlsbad, CA). The cells were passaged twice weekly
and maintained at 90% confluence densities.
The HepG2 cells were maintained in Eagle’s Minimum Essential Medium (EMEM) from ATCC
(Manassas, VA) supplemented with 10% FBS, 100 units/mL penicillin and 100 µg/mL
streptomycin (P/S) (Gibco). The cells were passaged twice weekly and maintained at 90%
The PC-3 cells were maintained in Kaighn’s F12 medium (Gibco, Carlsbad, CA) supplemented
with 10% FBS (HyClone, Logan, UT), 100 units/mL penicillin and 100 µg/mL streptomycin
(P/S) (Gibco). The cells were passaged twice weekly and maintained at 90% confluence. Cells
between passages 4 and 15 were used in the assays.
The fibroblast cell line MRC-5 cell line derived from normal lung tissue, was purchased from
ATCC (Manassas, VA) and cultured in Minimum Essential Medium (MEM) (Cellgro, Manassas,
VA) supplemented with 10% FBS (HyClone, Logan, UT) and 1% PSG (Invitrogen). The cells
were passaged twice weekly and maintained at 90% confluence densities.
Protocol for Quiescent PBMCs: (§3) Human peripheral blood mononuclear cells (PBMCs) were isolated from human buffy coats obtained from healthy volunteers (Stanford Blood Bank, Palo Alto, CA) using standard Ficoll separation and stimulated as described elsewhere ([13]) and were tested at both quiescent and stimulated stages. Quiescent PBMCs were stimulated with 10 units per ml of recombinant human interleukin 2 (hIL-2) and 1 μg per ml phytohemagglutinin P (PHA-P) for 48 h prior to drug treatment.
as §2
(§4) Human peripheral blood mononuclear cells (PBMCs) were isolated from human buffy coats
(§5) obtained from normal healthy volunteers (Stanford Medical School Blood Center, Palo Alto,
(§6) CA). Total PBMCs were isolated from buffy coats using standard Ficoll separation and sterile
(§7) cellular isolation techniques performed in a bio-safety cabinet (1). Except where noted, the
(§8) procedure was carried out at room temperature. The final PBMCs pellet was resuspended in
(§9) Logan, UT), penicillin 100 units/mL and streptomycin 100 µg/mL (Gibco). For quiescent
(§10) PBMCs cultures, total cells were seeded in 96-well plates at a density of 1 x 10^6 cells per well, followed by immediate drug treatment. Stimulated PBMCs cultures were set up by seeding the freshly isolated PBMCs in T-175cm2 tissue culture flasks in 100 mL of RPMI containing the same components as the ones used for the quiescent PBMCs but with the addition of 10 units per mL of recombinant human interleukin-2 (hIL-2, Roche, Indianapolis, IN), and 1 µg per mL phytohemagglutinin-P (PHA-P, Sigma-Aldrich, St. Louis, MO) at density of 2  10^6 cells per mL for 48 hours at 37C in a 5% CO2 incubator with 90% humidity, prior to drug treatment.
Protocol for Stimulated PBMCs: as §3, §2, §4, §5, §6, §7, §8, §9, §10

As to `Nc1ccn([C@H]2CC[C@@H](CO)O2)c(=O)n1` [ddC, dideoxycytosine], the “selectivity of effect on spare respiratory capacity versus DNA and ATP levels” value in series [1] (3-day treatments) was “specifically inhibited mitochondrial spare respiratory capacity”. Besides, the CC50 in series [1] (read-out: Mean CC50 ± SD causing Mitochondrial toxicity: Respiration, spare respiratory capacity, 3 days) was 0.21 ± 0.03 µM; in the series on Fibroblasts (MRC5), > 89 µM; in series [2], 9.7 ± 2 µM; in the series with Stimulated PBMCs, > 100 µM; in series [3], > 1 µM; in the series with Quiescent PBMCs, > 100 µM. Also, the CC50 is 0.8 ± 0.21 µM with Prostate cells (PC-3) (read-out: Mean CC50 ± SD causing General cellular toxicity: ATP level, PC-3 cells, 5 days); 0.8 ± 0.21 µM with Prostate cells (PC-3) (read-out: Mean CC50 ± SD in Prostate cells (PC-3), 5-day treatment); 0.19 ± 0.07 µM in [4] (PC-3 cells, COX-1, 5 days, read-out: Mean CC50 ± SD causing Mitochondrial toxicity: Protein synthesis); > 89 µM with Huh7; > 100 µM in [5]; > 89 µM in the series with HepG2 (galactose). In addition, the CC50 in [6] was 1.9 ± 0.3 µM; with T-cells (MT-4) it was > 89 µM. Moreover, in series [4] (5-day treatment), the “fold greater sensitivity of PC-3 cells than HepG2 cells to reductions in COX-1 protein expression” value is > 500 fold. Also, the “selectivity of effect on COX-1 versus SDH-A and ATP levels” value in series [4] (PC-3 cells, 5-day treatments) is recorded as “specifically inhibited COX-1 synthesis”. Besides, in [7], the “fold greater sensitivity of PC-3 cells than HepG2 cells to mitochondrial DNA depletion” value is given as > 30 fold.
For `O=c1[nH]cc(F)c(=O)[nH]1` [5-FU, 5-flurouracil], the CC50 is 3.4 ± 0.8 µM in series [2]; > 100 µM with Stimulated PBMCs; > 100 µM in the series with Quiescent PBMCs; > 100 µM in series [5]; 3.7 ± 0.5 µM in series [6].
